Data from publication PMC10967203, “Rolapitant treats lung cancer by targeting deubiquitinase OTUD3” (Cell Communication and Signaling : CCS, 2024).

Biological target: T1, OTUD3 (Homo sapiens, UniProt Q5T2D3)
T1 sequence (Q5T2D3 1-398): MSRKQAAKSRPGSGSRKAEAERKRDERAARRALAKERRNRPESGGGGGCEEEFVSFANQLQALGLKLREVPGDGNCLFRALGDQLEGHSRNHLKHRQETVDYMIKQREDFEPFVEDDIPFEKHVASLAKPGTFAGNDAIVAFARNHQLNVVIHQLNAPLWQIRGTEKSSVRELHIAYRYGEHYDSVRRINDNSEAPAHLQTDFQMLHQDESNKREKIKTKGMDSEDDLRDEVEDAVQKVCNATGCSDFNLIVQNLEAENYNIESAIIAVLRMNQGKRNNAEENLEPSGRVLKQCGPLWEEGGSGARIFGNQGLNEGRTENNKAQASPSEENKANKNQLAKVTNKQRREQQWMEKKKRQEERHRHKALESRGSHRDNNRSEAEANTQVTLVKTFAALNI
Experiment: microscale thermophoresis (MST) with labeled OTUD3; supported by in vitro K48 di-ubiquitin cleavage assay with purified OTUD3 OTU (aa […]) at […] Rolapitant
Type: binding

C[C@@H](OC[C@@]1(c2ccccc2)CC[C@]2(CCC(=O)N2)CN1)c1cc(C(F)(F)F)cc(C(F)(F)F)c1 [Rolapitant]
microscale thermophoresis (MST) with labeled OTUD3; supported by in vitro K48 di: MST (microscale thermophoresis) assays shown that OTUD3 could directly bind to Rolapitant in vitro
